Results published in patent publication US20030226169A1, “DNA sequences encoding antifungal proteins” (priority 1995, published 2003).
≈ marks a conversion by molar mass, not a printed value. Read-outs that look alike come from different tables or passages of the source. Residues, ends and D or L forms follow the SMILES beside them.

Assays:
[1] = system: Fusarium culmorum (IMI 180420); test: Antifungal growth inhibition microplate assay (photospectrometry); type: cell-based; conditions: ½ PDB; for IC50 / F CULMORUM IC / F CULMORUM IC50: the source numbers peptides by N-terminal amino acid; for F CULMORUM IC: Table 6 / FIG. 8: Rs-AFP1-based 9-mer split peptides; for F CULMORUM IC50: Table 7 / FIG. 8: Rs-AFP1-based 12-mer split peptides
Description: (§1) The following fungal strains were used: Alternaria brassicicola (MUCL 20297), Ascophyta pisi (MUCL 30164), Botrytis cinerea (MUCL 30158), Fusarium culmorum (IMI 180420) and Verticillium dahliae (MUCL 19210).
(§2) Fungi were grown on six cereal agar plates at room temperature and under white fluorescent light except for F culmorum and V dahliae which were grown in the dark. The duration of the spore harvest varied between 10 and 25 days depending on the strain. Spores were collected as follows. Five to ten ml of sterile milli-Q water was poured into each dish and the surface of the agar was rubbed with a sterile spatula to obtain a suspension containing mycelium and spores. This suspension was filtered through a sterile glasswool-plugged funnel and the filtrate containing the spores was collected in a sterile polypropylene centrifuge tube. The A brassicicola spores were suspended in sterile 0.1 Tween 20 (Merk, 822184) due to their hydrophobic nature. The spore suspensions were then washed twice by centrifugation at 2,400×g for 15 minutes and resuspended in a small volume of steril milli-Q water. The spore density was determined in a counting chamber and then adjusted to 4×10^7 spores per ml. Aliquots of the spore suspension were transferred to sterile microtubes and an equal volume of sterile 50% glycerol (Merck, 4091) was added to each tube so that a final spore suspension of 2×10^7 spores per ml in 25% glycerol was obtained. After careful mixing of the stock, the spore suspension was transferred in 100 μl aliquots to sterile microtubes and stored at −80° C.
(§3) Antifungal activity was measured by photospectrometry as described by Broekaert et al, (1990, FEMS Microbiol Lett, 69:55-60). Tests were performed by adding 20 μl of test solution and 80 μl of a fungal spore suspension (2×10^4 spores/ml) per well in a sterile flat-bottom 96-well microtiterplate. The spore suspension was prepared by diluting the stock spore suspension ([…] in 25% glycerol) 1:1000 in half-strength potato dextrose broth. A positive growth control consisting of eight wells containing 20 μl of sterile milli-Q water and 80 μl of the fungal spore suspension was included in each test. The microtiterplates were incubated (with the lid on) in an aerated place at room temperature and under conditions of darkness for all test organisms.
(§4) After 30 minutes of incubation (when the spores are settled on the well bottom) the optical density was measured in a microplate reader (Bio Rad 3550-UV) at 595 nm. Incubation of the microtiterplates continued until the optical density of the control microculture was between 0.250 and 0.500, which took approximately 72 hours (96 hours for V dahliae). Percentage of growth inhibition (% GI) was estimated as 100 times the ratio of the corrected absorbance of the control microculture minus the corrected absorbance of the test microculture over the corrected absorbance of the control microculture at 595 nm. The corrected absorbance values equal the absorbance at 595 nm of the culture measured after 72 or 96 hours minus the absorbance at 595 nm measured after 30 minutes.
(§5) % GI=[(Acontrol−Atest/Acontrol]×100
(§6) where Acontrol=(A72/96h−A30min)control
(§7) The IC50 value is defined as the concentration that gives a 50% growth inhibition after 72 or 96 hours of incubation. The minimum inhibitory concentration (MIC) corresponds to the minimum concentration that gives 100% growth inhibition after 72 or 96 hours incubation.

[2] = system: Ascophyta pisi (MUCL 30164); type: cell-based; conditions: ½ PDB; for A PISI IC: the source numbers peptides by N-terminal amino acid
Description: as §1, §2, §3, §4, §5, §6, §7

[3] = Table 3 / FIG. 6: Rs-AFP2-based 9-mer split peptides
[4] = Table 3: Rs-AFP2-based 9-mer split peptides, duplicate
[5] = Table 6: Rs-AFP1-based 9-mer split peptides
[6] = Table 4 / FIG. 6: Rs-AFP2-based 12-mer split peptides
[7] = Table 4: Rs-AFP2-based 12-mer split peptides, triplicate
[8] = Table 7: Rs-AFP1-based 12-mer split peptides

## CC[C@H](C)[C@H](NC(=O)[C@H](CS)NC(=O)[C@H](CCCCN)NC(=O)[C@H](Cc1c[nH]cn1)NC(=O)[C@H](C)NC(=O)[C@@H]1CCCN1C(C)=O)C(=O)N[C@@H](CS)C(=O)N[C@@H](Cc1ccc(O)cc1)C(=O)N[C@@H](Cc1ccccc1)C(N)=O [compound 87] (Ac-PAHKCICYF-NH2)
[1]; [3]
  IC50: 39 µg/mL (≈ 34.7 µM)
[1]; [4]
  MIC: 50 µg/mL (≈ 44.5 µM)
[1]
  F CULMORUM IC: 28 µg/mL
[1]; [5]
  F CULMORUM MIC: 37.5 µg/mL
[2]; [5]
  A PISI MIC: 50 µg/mL
  A PISI IC: 31 µg/mL

## CC[C@H](C)[C@H](NC(=O)[C@H](CS)NC(=O)[C@H](CCCCN)NC(=O)[C@H](Cc1c[nH]cn1)NC(=O)[C@H](C)NC(C)=O)C(=O)N[C@@H](CS)C(=O)N[C@@H](Cc1ccc(O)cc1)C(=O)N[C@@H](Cc1ccccc1)C(=O)N1CCC[C@H]1C(N)=O [compound 88] (Ac-AHKCICYFP-NH2)
[1]; [3]
  IC50: 35 µg/mL (≈ 31.2 µM)
[1]; [4]
  MIC: 50 µg/mL (≈ 44.5 µM)
[1]
  F CULMORUM IC: 21 µg/mL
[1]; [5]
  F CULMORUM MIC: 37.5 µg/mL
[2]; [5]
  A PISI MIC: 25 µg/mL
  A PISI IC: 18 µg/mL

## CC[C@H](C)[C@H](NC(=O)[C@H](CS)NC(=O)[C@H](CCCCN)NC(=O)[C@H](Cc1c[nH]cn1)NC(C)=O)C(=O)N[C@@H](CS)C(=O)N[C@@H](Cc1ccc(O)cc1)C(=O)N[C@@H](Cc1ccccc1)C(=O)N1CCC[C@H]1C(=O)N[C@@H](CS)C(N)=O [compound 89] (Ac-HKCICYFPC-NH2)
[1]
  F CULMORUM IC: 233 µg/mL
[2]; [5]
  A PISI IC: 70 µg/mL

## CC(=O)NCC(=O)N[C@@H](CO)C(=O)N[C@@H](CS)C(=O)N[C@@H](CC(N)=O)C(=O)N[C@@H](Cc1ccc(O)cc1)C(=O)N[C@H](C(=O)N[C@@H](Cc1ccccc1)C(=O)N1CCC[C@H]1C(=O)N[C@@H](C)C(=O)N[C@@H](Cc1c[nH]cn1)C(=O)N[C@@H](CCCCN)C(=O)N[C@@H](CS)C(N)=O)C(C)C [compound 123] (Ac-GSCNYVFPAHKC-NH2)
[1]; [6]
  IC50: 280 µg/mL (≈ 205 µM)
[1]; [7]
  MIC: 300 µg/mL (≈ 220 µM)
[1]
  F CULMORUM IC50: 266 µg/mL
[1]; [8]
  F CULMORUM MIC: 300 µg/mL
[2]; [8]
  A PISI IC50: 349 µg/mL
  A PISI MIC: >400 µg/mL

## CC[C@H](C)[C@H](NC(=O)[C@H](CS)NC(=O)[C@H](CCCCN)NC(=O)[C@H](Cc1c[nH]cn1)NC(=O)[C@H](C)NC(=O)[C@@H]1CCCN1C(=O)[C@H](Cc1ccccc1)NC(=O)[C@@H](NC(=O)[C@H](Cc1ccc(O)cc1)NC(=O)[C@H](CC(N)=O)NC(=O)[C@H](CS)NC(=O)[C@H](CO)NC(C)=O)C(C)C)C(N)=O [compound 124] (Ac-SCNYVFPAHKCI-NH2)
[1]; [6]
  IC50: 135 µg/mL (≈ 94.9 µM)
[1]; [7]
  MIC: 200 µg/mL (≈ 141 µM)
[1]
  F CULMORUM IC50: 213 µg/mL
[1]; [8]
  F CULMORUM MIC: 300 µg/mL
[2]; [8]
  A PISI IC50: 318 µg/mL
  A PISI MIC: >400 µg/mL

## CC[C@H](C)[C@H](NC(=O)[C@H](CS)NC(=O)[C@H](CCCCN)NC(=O)[C@H](Cc1c[nH]cn1)NC(=O)[C@H](C)NC(=O)[C@@H]1CCCN1C(=O)[C@H](Cc1ccccc1)NC(=O)[C@@H](NC(=O)[C@H](Cc1ccc(O)cc1)NC(=O)[C@H](CC(N)=O)NC(C)=O)C(C)C)C(=O)N[C@@H](CS)C(=O)N[C@@H](Cc1ccc(O)cc1)C(N)=O [compound 126] (Ac-NYVFPAHKCICY-NH2)
[1]; [6]
  IC50: 201 µg/mL (≈ 134 µM)
[1]; [7]
  MIC: 300 µg/mL (≈ 200 µM)
[1]
  F CULMORUM IC50: 189 µg/mL
[1]; [8]
  F CULMORUM MIC: 300 µg/mL
[2]; [8]
  A PISI IC50: 298 µg/mL
  A PISI MIC: 400 µg/mL

## CC[C@H](C)[C@H](NC(=O)[C@H](CS)NC(=O)[C@H](CCCCN)NC(=O)[C@H](Cc1c[nH]cn1)NC(=O)[C@H](C)NC(=O)[C@@H]1CCCN1C(=O)[C@H](Cc1ccccc1)NC(=O)[C@@H](NC(=O)[C@H](Cc1ccc(O)cc1)NC(C)=O)C(C)C)C(=O)N[C@@H](CS)C(=O)N[C@@H](Cc1ccc(O)cc1)C(=O)N[C@@H](Cc1ccccc1)C(N)=O [compound 127] (Ac-YVFPAHKCICYF-NH2)
[1]
  F CULMORUM IC50: 354 µg/mL
[1]; [8]
  F CULMORUM MIC: >400 µg/mL
[2]; [8]
  A PISI IC50: 302 µg/mL
  A PISI MIC: 400 µg/mL

## CC[C@H](C)[C@H](NC(=O)[C@H](CS)NC(=O)[C@H](CCCCN)NC(=O)[C@H](Cc1c[nH]cn1)NC(=O)[C@H](C)NC(=O)[C@@H]1CCCN1C(=O)[C@H](Cc1ccccc1)NC(=O)[C@@H](NC(C)=O)C(C)C)C(=O)N[C@@H](CS)C(=O)N[C@@H](Cc1ccc(O)cc1)C(=O)N[C@@H](Cc1ccccc1)C(=O)N1CCC[C@H]1C(N)=O [compound 128] (Ac-VFPAHKCICYFP-NH2)
[1]; [6]
  IC50: 344 µg/mL (≈ 235 µM)
[1]; [7]
  MIC: >400 µg/mL
[1]
  F CULMORUM IC50: 320 µg/mL
[1]; [8]
  F CULMORUM MIC: >400 µg/mL
[2]; [8]
  A PISI IC50: 181 µg/mL
  A PISI MIC: 400 µg/mL

## Ac-ARHGSCNYV-NH2 [compound 77]
[1]; [3]
  IC50: 189 µg/mL
[1]; [4]
  MIC: 300 µg/mL
[1]
  F CULMORUM IC: 193 µg/mL
[1]; [5]
  F CULMORUM MIC: 300 µg/mL
[2]; [5]
  A PISI MIC: 200 µg/mL
  A PISI IC: 143 µg/mL

## Ac-CNYVFPAHK-NH2 [compound 82]
[1]; [3]
  IC50: 77 µg/mL
[1]; [4]
  MIC: 100 µg/mL
[1]
  F CULMORUM IC: 113 µg/mL
[1]; [5]
  F CULMORUM MIC: 150 µg/mL
[2]; [5]
  A PISI MIC: 400 µg/mL
  A PISI IC: 265 µg/mL

## Ac-EKARHGSCNYVF-NH2 [compound 118]
[1]; [6]
  IC50: 154 µg/mL
[1]; [7]
  MIC: 200 µg/mL
[1]
  F CULMORUM IC50: 63 µg/mL
[1]; [8]
  F CULMORUM MIC: 100 µg/mL
[2]; [8]
  A PISI IC50: 91 µg/mL
  A PISI MIC: 200 µg/mL

## Ac-HGSCNYVFPAHK-NH2 [compound 122]
[1]; [6]
  IC50: 30 µg/mL
[1]; [7]
  MIC: 50 µg/mL
[1]
  F CULMORUM IC50: 35 µg/mL
[1]; [8]
  F CULMORUM MIC: 50 µg/mL
[2]; [8]
  A PISI IC50: 74 µg/mL
  A PISI MIC: 100 µg/mL

## Ac-KARHGSCNY-NH2 [compound 76]
[1]; [3]
  IC50: 162 µg/mL
[1]; [4]
  MIC: 300 µg/mL
[1]
  F CULMORUM IC: 169 µg/mL
[1]; [5]
  F CULMORUM MIC: 250 µg/mL
[2]; [5]
  A PISI MIC: >400 µg/mL
  A PISI IC: 342 µg/mL

## Ac-KARHGSCNYVFP-NH2 [compound 119]
[1]; [6]
  IC50: 37 µg/mL
[1]; [7]
  MIC: 50 µg/mL
[1]
  F CULMORUM IC50: 33 µg/mL
[1]; [8]
  F CULMORUM MIC: 50 µg/mL
[2]; [8]
  A PISI IC50: 66 µg/mL
  A PISI MIC: 100 µg/mL

## Ac-LEKARHGSCNYV-NH2 [compound 117]
[1]; [6]
  IC50: 327 µg/mL
[1]; [7]
  MIC: >400 µg/mL
[1]
  F CULMORUM IC50: 347 µg/mL
[1]; [8]
  F CULMORUM MIC: 400 µg/mL
[2]; [8]
  A PISI IC50: 293 µg/mL
  A PISI MIC: 400 µg/mL
